This note sets out measurements from patent US5801178A, “Aniline derivative having polyunsaturated fatty acid residue and use thereof” (Nippon Shoji Kaish Ltd., priority 1995, dated 1998).

Usually IC50 stands for the concentration that gives 50% inhibition.

Experiment [1] concerns the target T1, ACAT derived from human macrophage (Homo sapiens, UniProt P35610).
T1 construct: Using, as an enzyme source, microsomal fractions prepared in the manner described below under Preparation of Microsome from U937 cells; endogenous in cells; host or cells: U937 cells differentiated with TPA, microsomal fraction
T1 sequence (P35610 1-550): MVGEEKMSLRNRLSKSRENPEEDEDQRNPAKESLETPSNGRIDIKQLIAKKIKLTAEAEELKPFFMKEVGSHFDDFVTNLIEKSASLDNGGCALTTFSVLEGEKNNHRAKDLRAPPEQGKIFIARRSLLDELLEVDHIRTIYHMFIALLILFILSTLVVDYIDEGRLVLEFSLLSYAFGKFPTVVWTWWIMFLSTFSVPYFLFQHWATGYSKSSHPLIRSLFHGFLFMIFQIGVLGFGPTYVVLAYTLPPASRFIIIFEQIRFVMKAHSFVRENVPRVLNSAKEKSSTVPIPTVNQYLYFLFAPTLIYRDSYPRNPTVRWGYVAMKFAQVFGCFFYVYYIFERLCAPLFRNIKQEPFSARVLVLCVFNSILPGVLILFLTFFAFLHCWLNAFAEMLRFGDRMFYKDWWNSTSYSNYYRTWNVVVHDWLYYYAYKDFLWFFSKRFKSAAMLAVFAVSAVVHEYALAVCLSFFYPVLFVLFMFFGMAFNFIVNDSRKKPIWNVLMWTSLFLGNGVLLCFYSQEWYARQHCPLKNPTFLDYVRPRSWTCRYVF
Kind of experiment: Inhibitory activity against ACAT derived from human macrophage (microsomes of TPA-differentiated U937 cells). In kind it is biochemical. The settings on record: for Selectivity: Table 1, rat liver ACAT IC50 / human macrophage ACAT IC50; for IC50: human macrophage (U937/TPA) microsome, pH 7.4, 37° C., 30 minutes. As for the experimental part: Inhibitory activity against ACAT derived from human macrophage
(§1) Using, as an enzyme source, microsomal fractions prepared in the manner described below under Preparation of Microsome from U937 cells [human monocyte-derived cells known to differentiate into macrophages by the addition of TPA (12-O-tetradecanoylphorbol 13-acetate)] differentiated with TPA, the inhibitory activity against ACAT in the microsome fractions was determined as in the following. The compound of the present invention was dissolved in dimethyl sulfoxide and used as a sample solution. [1-^14 C] […] Ethanol (1 ml) was added to stop the reaction, and n-hexane (4.5 ml) was added. The reaction mixture was centrifuged at 2,000 rpm for 2 minutes and the upper n-hexane layer was separated and recovered, whereby cholesterol oleate (reaction product) was extracted. n-Hexane was evaporated with a nitrogen gas and the residue was re-dissolved in n-hexane (50 μl), which was used as a sample for thin-layer chromatography. […] After developing, the spot of cholesterol oleate was colored with iodine. The spot was cut out and dissolved in a xylene scintillator (Aquasol-2, Daiichi Pure Chemicals Co., Ltd.). The amount of cholesterol oleate was determined with a liquid scintillation counter.
The cells thus scraped and the culture solution were centrifuged at 3,000 rpm for 5 minutes, and the cell fractions obtained as precipitate were once freezed at -70° C. and preserved. The cells preserved at -70° C. were thawed and homogenized at 4° C. in a Teflon homogenizer. The homogenate was centrifuged at 12,000 g for 15 minutes. The precipitate fractions containing nuclea and mitochondria were removed and the obtained supernatant was further centrifuged at 100,000 g for 60 minutes. The supernatant was discarded, and the obtained precipitate fractions were suspended in 150 mM potassium phosphate buffer (pH 7.4) and used as a microsomal fraction.

Experiment [2] has as its system ACAT derived from rat liver. As to the kind of experiment: Inhibitory activity against ACAT derived from rat liver microsome. Type of experiment: biochemical. Conditions: pH 7.4, 37° C., 30 minutes. As for the experimental part: Inhibitory activity against ACAT derived from rat liver microsome
as §1, with “source, the” for “source,”, “prepared from rat liver” for “prepared”, “of Microsome,” for “of Microsome from U937 cells [human monocyte-derived cells known to differentiate into macrophages by the addition of TPA (12-O-tetradecanoylphorbol 13-acetate)] differentiated with TPA,”, “re-dissolved dissolved” for “re-dissolved”, “determined using” for “determined with”
The liver was removed from a fasted rat and thoroughly perfused with 0.25M sucrose solution. The liver was weighed, minced with scissors or razor and placed in a Teflon homogenizer. The liver was homogenized with 9 volumes [9 ml per g (wet weight) of liver] of 0.25M sucrose solution or 50 mM Tris-HCl buffer (pH 7.5) containing 0.25M sucrose and 5 mM MgCl2. The homogenate was centrifuged at 8,000-10,000 g for 10-15 minutes. The obtained supernatant was centrifuged at 105,000 g for 60-90 minutes. The sediment obtained from this centrifugation was suspended in 150 mM potassium phosphate buffer (pH 7.4) to give a microsomal fraction.

`CCC=CCC=CCC=CCC=CCC=CCCCC(=O)Nc1c(OC)cc(OC)cc1OC` [Compound 1, N-(2,4,6-trimethoxyphenyl)-5,8,11,14,17-eicosapentaenamide]: in experiment [1], the Selectivity worked out at 49.6 and inhibition was half-maximal at 0.27 µM (IC50). Besides, in experiment [2], the IC50 turned out to be 13.4 µM.

Take `CCC=CCC=CCC=CCC=CCC=CCC=CCCC(=O)Nc1c(OC)cc(OC)cc1OC` [Compound 2, N-(2,4,6-trimethoxyphenyl)-4,7,10,13,16,19-docosahexaenamide]: in experiment [1], the Selectivity is 40.6 and inhibition was half-maximal at 0.5 µM (IC50). This molecule had an IC50 in experiment [2] of 20.3 µM.

Regarding `CCC=CCC=CCC=CCC=CCC=CCCCC(=O)Nc1c(C)cccc1C` [Compound 7, N-(2,6-dimethylphenyl)-5,8,11,14,17-eicosapentaenamide], in experiment [1], the Selectivity came out at 70.8 and the IC50 was 0.06 µM. In experiment [2], this molecule yielded an IC50 of 4.25 µM.

In experiment [1], `CCC=CCC=CCC=CCC=CCC=CCCCC(=O)Nc1c(CC)cccc1CC` [Compound 9, N-(2,6-diethylphenyl)-5,8,11,14,17-eicosapentaenamide] gave a Selectivity of 60 and an IC50 of 0.018 µM. This molecule also registered an IC50 in experiment [2] of 1.08 µM.

Turning to `CCC=CCC=CCC=CCC=CCC=CCC=CCCC(=O)Nc1c(CC)cccc1CC` [Compound 10, N-(2,6-diethylphenyl)-4,7,10,13,16,19-docosahexaenamide], the Selectivity in experiment [1] is 395. The IC50 in experiment [1] was found to be 0.029 µM; in experiment [2] it was 11.5 µM.

In turn, `CCC=CCC=CCC=CCC=CCC=CCCCC(=O)NCCNC(=O)Nc1c(C(C)C)cccc1C(C)C` [Compound 13, N-(5,8,11,14,17-eicosapentaenoyl)-N'-(2,6-diisopropylanilinocarbonyl)ethylenediamine] displayed a Selectivity in experiment [1] above 746. In addition, the IC50 in experiment [1] was 0.67 µM; in experiment [2], above 500 µM.

As to `CCC=CCC=CCC=CCC=CCC=CCC=CCCC(=O)NCCNC(=O)Nc1c(C(C)C)cccc1C(C)C` [Compound 14, N-(4,7,10,13,16,19-docosahexaenoyl)-N'-(2,6-diisopropylanilinocarbonyl)ethylenediamine], in experiment [1], the Selectivity is on record as above 111 and the IC50 was found to be 4.52 µM. In experiment [2], this molecule showed an IC50 above 500 µM.

In experiment [1], `CCC=CCC=CCC=CCC=CCC=CCCCC(=O)N1CCN(C(=O)Nc2c(C(C)C)cccc2C(C)C)CC1` [Compound 15, N-(5,8,11,14,17-eicosapentaenoyl)-N'-(2,6-diisopropylanilinocarbonyl)piperazine] returned a Selectivity above 463 and an IC50 of 1.08 µM. The molecule also returned an IC50 in experiment [2] above 500 µM.

Consider `CCC=CCC=CCC=CCC=CCC=CCC=CCCC(=O)N1CCN(C(=O)Nc2c(C(C)C)cccc2C(C)C)CC1` [Compound 16, N-(4,7,10,13,16,19-docosahexaenoyl)-N'-(2,6-diisopropylanilinocarbonyl)piperazine], for which the Selectivity in experiment [1] was above 725. Besides, the results for the half-maximal inhibitory concentration (IC50) in experiment [1] and in experiment [2] were 0.69 µM and above 500 µM, respectively.

Turning to `CCC=CCC=CCC=CCC=CCC=CCCCC(=O)NC1CCCCC1NC(=O)Nc1c(C(C)C)cccc1C(C)C` (stereo not drawn) [Compound 17, N-(5,8,11,14,17-eocosapentaenoyl)-N'-(2,6-diisopropylanilinocarbonyl)-1,2-diaminocyclohexane], in experiment [1], the Selectivity is listed as above 269 and the IC50 was 1.86 µM. Moreover, the IC50 in experiment [2] is above 500 µM.

As for `CCC=CCC=CCC=CCC=CCC=CCC=CCCC(=O)NC1CCCCC1NC(=O)Nc1c(C(C)C)cccc1C(C)C` (stereo not drawn) [Compound 18, N-(4,7,10,13,16,19-docosahexaenoyl)-N'-(2,6-diisopropylanilinocarbonyl)-1,2-diaminocyclohexane], in experiment [1], the Selectivity is listed as above 190 and the IC50 amounted to 2.63 µM. In addition, the IC50 in experiment [2] is above 500 µM.

As for `CCC=CCC=CCC=CCC=CCC=CCCCC(=O)Nc1ccc(CNC(=O)Nc2c(C(C)C)cccc2C(C)C)cc1` [Compound 19, N-{4-(5,8,11,14,17-eicosapentaenoylamino)phenylmethyl}-N'-(2,6-diisopropylphenyl)urea], in experiment [1], the Selectivity is above 3333 and the IC50 is 0.15 µM. Also, in experiment [2], the IC50 is above 500 µM.
